Test results reported in US11485993B2, “Therapeutic drug monitoring” (Fastinov S.A., priority 2017, dated 2022).

Assays:
[1] = test system: S. aureus ATCC 29213; test: Flow cytometric measurement of the antimicrobial activity of vancomycin in human serum; assay type: cell-based; conditions: S. aureus ATCC 29213, flow cytometry, FIGS. 5A and 5B
Description: Material and Methods. S. aureus ATCC 29213 was incubated for 1 hour with serial concentrations of vancomycin (4 μg/ml to 0.03 μg/ml) in donor drug free human serum and stained with adequate fluorochrome. The intensity of fluorescence and the changes in the scattergram of the bacterial population were recorded after flow cytometry analysis. Twenty samples of serum collected from patients receiving vancomycin were obtained from the biochemistry lab. The vancomycin drug concentrations were analyzed by Architect iVancomycin (Abbott) using the Architect i1000 SR analyzer (Abbott). Architect iVancomycin is an in vitro chemiluminescent microparticle immunoassay (CMIA) for the quantitative measurement of vancomycin in human serum or plasma. In parallel, serum samples were incubated with the S. aureus control strain, after 10 serial dilutions (1:2) and analyzed by flow cytometry (Accury, BD) according the protocol described in Example 1. A flow cytometric template of cell analysis was defined in order to include the majority of the bacterial population. A comparison of the concentrations obtained with the Architect iVancomycin method and with the new flow cytometric method was performed using Student's T test.

[2] = test system: E. coli ATCC 25922; test: Flow cytometric measurement of the antimicrobial activity of colistin in human plasma; assay type: cell-based
Description: Serial dilutions of colistin (Sigma), ranging between 0.008 and 2 μg/ml, were inoculated in human plasma (free of colistin) and incubated with E. coli ATCC 25922 during 60 minutes and afterwards stained with a fluorescent dye and analyzed in a flow cytometer (Accuri, BD) using a protocol previously optimized (FIG. 3): a flow cytometric template of cell analysis was defined in order to include the majority of the bacterial population and at least 20,000 cells are analyzed according size, complexity and intensity of fluorescence on the different fluorescent channels.

CN[C@H](CC(C)C)C(=O)N[C@H]1C(=O)N[C@@H](CC(N)=O)C(=O)N[C@H]2C(=O)N[C@H]3C(=O)N[C@H](C(=O)N[C@H](C(=O)O)c4cc(O)cc(O)c4-c4cc3ccc4O)[C@H](O)c3ccc(c(Cl)c3)Oc3cc2cc(c3O[C@@H]2O[C@H](CO)[C@@H](O)[C@H](O)[C@H]2O[C@H]2C[C@](C)(N)[C@H](O)[C@H](C)O2)Oc2ccc(cc2Cl)[C@H]1O [vancomycin]
cellular lesion with increasing concentration (reduction of cell density plot, increase of intensity of fluorescence) [1]: a dose effect cellular lesion is evident

colistin
morphological changes of the bacterial cell population after serial increasing concentrations ([2]; E. coli ATCC 25922, flow cytometry scattergrams): Morphological changes were evident | amount of cells at the acquisition gate after incubation with increasing concentrations ([2]; E. coli ATCC 25922, flow cytometry, FIG. 4): a dose-dependent effect was achieved
